{"source": "patent US10011649B2", "about": "(priority 2013, dated 2018)", "key": {"[1]": {"test_system": "UV inactivated Influenza A PR8/1934", "type": "binding"}, "[2]": {"test_system": "UV inactivated Influenza A PR/8/1934 H1N1", "type": "binding"}, "[3]": {"test_system": "NP in A/Sydney/5/1997 H3N2 viral lysate", "type": "binding"}, "[4]": {"test_system": "hemagglutination of A/PR/8/34"}, "[5]": {"target": "T1, NP in A/PR/8/34 H1N1 viral lysate (Influenza A virus, UniProt P03466)", "T1 construct": "from tissue; host or cells: A/PR/8/34 H1N1 viral lysate", "T1 sequence (P03466 whole entry)": "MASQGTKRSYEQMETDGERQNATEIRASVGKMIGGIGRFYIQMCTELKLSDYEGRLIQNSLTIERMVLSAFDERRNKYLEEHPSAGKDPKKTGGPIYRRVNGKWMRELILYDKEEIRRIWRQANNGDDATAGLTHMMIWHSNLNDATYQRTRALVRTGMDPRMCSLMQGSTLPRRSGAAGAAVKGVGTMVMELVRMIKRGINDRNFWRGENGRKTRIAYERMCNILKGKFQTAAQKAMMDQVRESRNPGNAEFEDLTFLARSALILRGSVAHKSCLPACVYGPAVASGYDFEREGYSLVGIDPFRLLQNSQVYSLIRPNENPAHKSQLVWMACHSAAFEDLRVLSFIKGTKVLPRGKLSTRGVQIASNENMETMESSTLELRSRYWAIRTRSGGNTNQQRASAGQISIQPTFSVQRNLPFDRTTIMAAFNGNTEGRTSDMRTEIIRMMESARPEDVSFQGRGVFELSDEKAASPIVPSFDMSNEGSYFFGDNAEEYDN", "type": "binding"}, "[6]": {"test_system": "A/PR/8/34 H1N1 infected Madin-Darby Canine Kidney (MDCK) cells", "test": "Cytopathic effect assay (XTT), virus induced cell death", "type": "cell-based", "settings": "read-out: IC50, inhibition of virus induced cell death", "description": "The illustrated examples support the finding that synbodies inhibit the cytopathic effect of influenza on MDCK cells. Influenza binding peptides were conjugated to a bivalent scaffold (Sc1, as best shown in FIG. 2A) and screened for viral inhibition in an in vitro inhibition assay with A/PR/8/34 H1N1 infected Madin-Darby Canine Kidney (MDCK) cells."}}, "note": "Numbered stars: 1 amine (or outer) side, 2 acyl side, 3 side chain; on linkers, the order of the positions; unused ones are H or OH. Bridge positions count the residues as written; N and C are the ends. Square brackets hold non-standard residues; d marks the D form. Ends that are not written are not given here. I, II: the chains in the order shown. * marks the point of attachment. ξ: configuration not given here. Succinimide(1-C2H4CO,3-yl) = O=C1CC([*:1])C(=O)N1CCC(=O)[*:2]; X4 = O=C(O)CC[C@H](NC(=O)CCN1C(=O)CC([*:1])C1=O)C(=O)[*:2]; X2 = O=C(O)CCC(NC(=O)CCN1C(=O)CC([*:2])C1=O)C(=O)[*:1]; Biotin = O=C1N[C@H]2[C@H](CS[C@H]2CCCCC(=O)*)N1; X3 = O=C1CC([*:2])C(=O)N1CCC(=O)[*:1]; X1 = O=C1NC2CSC(CCCCC(=O)*)C2N1; scaffold‑1 = not defined here; Pra = C#CC[C@H](N)C(=O)O; ξE = NC(CCC(=O)O)C(=O)O; AEEA = NCCOCCOCC(=O)O; ξK = NCCCCC(N)C(=O)O; ξS = NC(CO)C(=O)O", "data": [{"substance": "opt9-opt9: homo-bivalent synbody SEQ ID NO: 10-10 on scaffold-1 (chain 1 CSGRMYPYRPFQGNHIYRKK; chain 2 CSGRMYPYRPFQGNHIYRKK; linker (positions not given here) via scaffold‑1; reading uncertain; also: homo-bivalent on scaffold-1, attachment not given here)", "values": [{"measurement": "Fold Change versus WT Synbody", "setting": "[1]", "value": 1, "unit": "fold"}]}, {"substance": "opt5-opt5: homo-bivalent synbody SEQ ID NO: 6-6 on scaffold-1 (chain 1 CSGRMYRYNPFQGNHIYNKK; chain 2 CSGRMYRYNPFQGNHIYNKK; linker (positions not given here) via scaffold‑1; reading uncertain; also: homo-bivalent on scaffold-1, attachment not given here)", "values": [{"measurement": "Fold Change versus WT Synbody", "setting": "[1]", "value": "n.b."}]}, {"substance": "CSGrMYpYrPFQGNHIYrKK (CSG[dR]MYPY[dR]PFQGNHIY[dR]KK; not fully specified (residue 7); printed as CSGrMYpYrPFQGNHIYrKK) [opt10]", "values": [{"measurement": "fold improvement of optimized peptide over identified lead peptide", "setting": "[2]", "value": "approximately 1000 fold"}]}, {"substance": "opt12-opt12: homo-bivalent synbody SEQ ID NO: 13-13 on scaffold-1 (chain 1 CSGRMYPYRPFQRKHIYRKK; chain 2 CSGRMYPYRPFQRKHIYRKK; linker (positions not given here) via scaffold‑1; reading uncertain; also: homo-bivalent on scaffold-1, attachment not given here)", "values": [{"measurement": "Fold Change versus WT Synbody", "setting": "[1]", "value": "n.b."}]}, {"substance": "opt2-opt2: homo-bivalent synbody SEQ ID NO: 3-3 on scaffold-1 (chain 1 CSGRMYEYNPFQGNHIYNKK; chain 2 CSGRMYEYNPFQGNHIYNKK; linker (positions not given here) via scaffold‑1; reading uncertain; also: homo-bivalent on scaffold-1, attachment not given here)", "values": [{"measurement": "Fold Change versus WT Synbody", "setting": "[1]", "value": 3, "unit": "fold"}]}, {"substance": "opt6-opt6: homo-bivalent synbody SEQ ID NO: 7-7 on scaffold-1 (chain 1 CSGDMYEYNPFQGNHIYRKK; chain 2 CSGDMYEYNPFQGNHIYRKK; linker (positions not given here) via scaffold‑1; reading uncertain; also: homo-bivalent on scaffold-1, attachment not given here)", "values": [{"measurement": "Fold Change versus WT Synbody", "setting": "[1]", "value": 4, "unit": "fold"}]}, {"substance": "opt14-opt14: homo-bivalent synbody SEQ ID NO: 15-15 on scaffold-1 (chain 1 CSGRMYEYNPFQGKHIYRKK; chain 2 CSGRMYEYNPFQGKHIYRKK; linker (positions not given here) via scaffold‑1; reading uncertain; also: homo-bivalent on scaffold-1, attachment not given here)", "values": [{"measurement": "Fold Change versus WT Synbody", "setting": "[1]", "value": 107, "unit": "fold"}]}, {"substance": "I: [ξE][ξK]G[ξS]G[ξS]G[AEEA][ξK](X1)IDKMPFETHRLGPGRFDGSG-NH2 / II: CSGDMYEYNPFQGNHIYNKK-NH2 / III: CSGDMYEYNPFQGNHIYNKK-NH2 (linker I:2-II:1 via X2; linker I:N-III:1 via X3) [P5-P5-Sc2]", "values": [{"measurement": "pull-down of NP from lysate", "setting": "[3]", "value": "pulled-down NP from both lysates"}, {"measurement": "inhibition of hemagglutination", "setting": "[4]", "value": "did not inhibit hemagglutination"}, {"measurement": "IC50", "setting": "A/Sydney/5/1997 H3N2", "value": 2.5, "unit": "µM"}, {"measurement": "pull-down of NP from lysate", "setting": "[5]", "value": "pulled-down NP from both lysates"}, {"measurement": "IC50", "setting": "A/CA/7/2009 H1N1", "value": 2.5, "unit": "µM"}]}, {"substance": "opt3-opt3: homo-bivalent synbody SEQ ID NO: 4-4 on scaffold-1 (chain 1 CSGDMYPYNPFQGNHIYNKK; chain 2 CSGDMYPYNPFQGNHIYNKK; linker (positions not given here) via scaffold‑1; reading uncertain; also: homo-bivalent on scaffold-1, attachment not given here)", "values": [{"measurement": "Fold Change versus WT Synbody", "setting": "[1]", "value": "n.b."}]}, {"substance": "opt13-opt13: homo-bivalent synbody SEQ ID NO: 14-14 on scaffold-1 (chain 1 CCSGDRYEYNPFQGKHIYNK; chain 2 CCSGDRYEYNPFQGKHIYNK; linker (positions not given here) via scaffold‑1; reading uncertain; also: homo-bivalent on scaffold-1, attachment not given here)", "values": [{"measurement": "Fold Change versus WT Synbody", "setting": "[1]", "value": "n.b."}]}, {"substance": "opt8-opt8: homo-bivalent synbody SEQ ID NO: 9-9 on scaffold-1 (chain 1 CSGTMYEYNPFQGNHIYNKK; chain 2 CSGTMYEYNPFQGNHIYNKK; linker (positions not given here) via scaffold‑1; reading uncertain; also: homo-bivalent on scaffold-1, attachment not given here)", "values": [{"measurement": "Fold Change versus WT Synbody", "setting": "[1]", "value": 1, "unit": "fold"}]}, {"substance": "I: CSGDMYEYNPFQGNHIYNKK-NH2 / II: CSGDMYEYNPFQGNHIYNKK-NH2 / III: EKGSKSGK(Biotin)[Pra]-NH2 (linker I:1-III:2 via X4; linker II:1-III:N via Succinimide(1-C2H4CO,3-yl); C-terminus assumed) [P5-P5-Sc1]", "values": [{"measurement": "Fold Change versus WT Synbody", "setting": "[1]", "value": 1, "unit": "fold"}, {"measurement": "IC50", "setting": "[6]", "value": "~2.5", "unit": "µM"}]}, {"substance": "opt4-opt4: homo-bivalent synbody SEQ ID NO: 5-5 on scaffold-1 (chain 1 CSGRMYPYNPFQGNHIYNKK; chain 2 CSGRMYPYNPFQGNHIYNKK; linker (positions not given here) via scaffold‑1; reading uncertain; also: homo-bivalent on scaffold-1, attachment not given here)", "values": [{"measurement": "Fold Change versus WT Synbody", "setting": "[1]", "value": 10, "unit": "fold"}]}, {"substance": "opt11-opt11: homo-bivalent synbody SEQ ID NO: 12-12 on scaffold-1 (chain 1 CSGTMYPYRPFQGNHIYRKK; chain 2 CSGTMYPYRPFQGNHIYRKK; linker (positions not given here) via scaffold‑1; reading uncertain; also: homo-bivalent on scaffold-1, attachment not given here)", "values": [{"measurement": "Fold Change versus WT Synbody", "setting": "[1]", "value": 47, "unit": "fold"}]}, {"substance": "opt1-opt1: homo-bivalent synbody SEQ ID NO: 2-2 on scaffold-1 (chain 1 CSGDMYRYNPFQGNHIYNKK; chain 2 CSGDMYRYNPFQGNHIYNKK; linker (positions not given here) via scaffold‑1; reading uncertain; also: homo-bivalent on scaffold-1, attachment not given here)", "values": [{"measurement": "Fold Change versus WT Synbody", "setting": "[1]", "value": 6, "unit": "fold"}]}, {"substance": "opt7-opt7: homo-bivalent synbody SEQ ID NO: 8-8 on scaffold-1 (chain 1 CSGRMYPYNPFQGNHIYRKK; chain 2 CSGRMYPYNPFQGNHIYRKK; linker (positions not given here) via scaffold‑1; reading uncertain; also: homo-bivalent on scaffold-1, attachment not given here)", "values": [{"measurement": "Fold Change versus WT Synbody", "setting": "[1]", "value": 45, "unit": "fold"}]}]}
